Assay results taken from ChEMBL document CHEMBL2331105, “Selective Cyp11B1 Inhibitors for the Treatment of Cortisol Dependent Diseases” (ACS Med Chem Lett, 2013).

Assays:
[1] = molecular target: T1, Cytochrome P450 11B1, mitochondrial (Homo sapiens, UniProt P15538); assay: Inhibition of human CYP11B1 expressed in hamster V79MZ cells using [1,2-3H]11-deoxycorticosterone as substrate preincubated for 60 mins prior to substrate addition measured after 25 mins by HPLC analysis; type: cell-based
T1 sequence (P15538 whole entry): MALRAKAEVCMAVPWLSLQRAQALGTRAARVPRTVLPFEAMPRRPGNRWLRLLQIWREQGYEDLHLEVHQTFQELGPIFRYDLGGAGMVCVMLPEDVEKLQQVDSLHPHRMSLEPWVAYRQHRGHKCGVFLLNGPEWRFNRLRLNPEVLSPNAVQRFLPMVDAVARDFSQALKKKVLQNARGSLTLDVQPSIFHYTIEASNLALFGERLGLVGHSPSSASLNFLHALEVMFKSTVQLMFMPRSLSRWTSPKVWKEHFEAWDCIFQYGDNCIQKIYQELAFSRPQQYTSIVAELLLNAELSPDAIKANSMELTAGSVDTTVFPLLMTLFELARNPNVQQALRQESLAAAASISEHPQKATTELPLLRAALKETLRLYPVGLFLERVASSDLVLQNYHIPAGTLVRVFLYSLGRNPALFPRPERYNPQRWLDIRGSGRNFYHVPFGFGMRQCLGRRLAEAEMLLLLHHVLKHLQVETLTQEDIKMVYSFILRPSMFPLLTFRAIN

[2] = molecular target: T2, Cytochrome P450 11B2, mitochondrial (Homo sapiens, UniProt P19099); assay: Inhibition of human CYP11B2 expressed in hamster V79MZ cells using [1,2-3H]11-deoxycorticosterone as substrate preincubated for 60 mins prior to substrate addition measured after 50 mins by HPLC analysis; type: cell-based
T2 sequence (P19099 whole entry): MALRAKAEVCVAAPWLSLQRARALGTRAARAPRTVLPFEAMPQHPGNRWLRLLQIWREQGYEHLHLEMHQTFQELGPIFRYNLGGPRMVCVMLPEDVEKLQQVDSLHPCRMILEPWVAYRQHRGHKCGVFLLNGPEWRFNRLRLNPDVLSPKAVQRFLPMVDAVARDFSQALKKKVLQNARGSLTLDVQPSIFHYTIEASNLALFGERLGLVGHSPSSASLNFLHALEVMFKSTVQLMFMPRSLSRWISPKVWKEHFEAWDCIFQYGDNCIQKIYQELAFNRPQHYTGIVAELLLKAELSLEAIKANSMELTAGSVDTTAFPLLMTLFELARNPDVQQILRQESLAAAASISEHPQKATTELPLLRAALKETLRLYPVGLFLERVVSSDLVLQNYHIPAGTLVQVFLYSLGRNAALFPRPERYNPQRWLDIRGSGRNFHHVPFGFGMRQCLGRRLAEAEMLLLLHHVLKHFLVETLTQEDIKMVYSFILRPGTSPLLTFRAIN

Fc1ccc(Cn2ccnc2)cn1
IC50 [1]: 72 nM | IC50 [2]: 1740 nM
